Test results from patent US20250019644A1, “Quantitatively Mapping Amino Acid Properties (QMAP) Cell Culture Media” (UNIVERSITY OF IOWA RESEARCH FOUNDATION, priority 2023, published 2025).

Columns and labels:
HCT15 cells = assay: Crystal Violet Cell Cytotoxicity Assay; assay type: cell-based; conditions: Homo sapiens, HCT-15; 2 mM, 48 hours, QMAP, compared to QMAP only; read-out: decrease in cell viability
Method: HCT15 cells were plated in 1:1 DMEM: QMAP media on a clear 96-well plate. After 18 hours, cells were treated with 200 μl of QMAP (CTRL) or QMAP plus an amino acid (2 mM). Cells were then grown for 48 hours, followed by a live/dead assay using the Crystal Violet Cell Cytotoxicity Assay Kit (BioVision, #K329) according to the manufacturer's directions. Briefly, cells were washed with 200 μl of 1× washing solution and incubated in 50 μl of crystal violet staining solution for 20 minutes. Cells were washed four times with 200 μl of 1× washing solution to remove dead cells. Cells were then incubated in 100 μl of solubilization solution for 20 minutes, and absorbance was measured at 595 nm.
An amino acid screen of all 20 essential and non-essential amino acids was performed to assess the differential effects of amino acids on cancer cell proliferation. Because commercially available cell culture media such as DMEM or RPMI contain variable concentrations of amino acids, a chemically defined, custom minimal media was designed containing all amino acids present at 0.3 mM, referred to as QMAP. HCT15 cells, a colon cancer cell line, were plated in 50:50 DMEM: QMAP and left to attach overnight. […] After 48 hours, cell proliferation was measured by crystal violet dye, which binds to ribose-like molecules such as DNA and assumes dead cells become unattached and are washed away.

HCT116 cells = assay: Metabolic profiling of tryptophan metabolite-treated cells, LC-MS; assay type: cell-based, human
Method: […] Cell plates were lyophilized overnight before metabolite extraction. To extract metabolites, 1 ml of an extraction buffer composed of 2:2:1 methanol/acetonitrile/water with internal standards at 1 μg/ml each (D4-Citric Acid, 13C5-Glutamine, 13C5-Glutamic Acid, 13C6-Lysine, 13C5-Methionine, 13C3-Serine, D4-Succinic Acid, 13C11-Tryptophan, and D8-Valine; Cambridge Isotope Laboratories) was added to the lyophilized cell samples. Cells were scraped for 20 seconds and collected into Eppendorf tubes, flash-frozen in liquid nitrogen, and sonicated for 10 minutes.
Samples were then placed on a rotating platform at −20° C. for 1 hour and centrifuged at 4° C. for 10 minutes at 21,000×g. 300 μL of the cleared metabolite extracts were transferred to fresh tubes for additional processing. An equal volume of each extract was pooled to serve as a quality control (QC) sample, which was analyzed at the beginning, end, and at a regular interval throughout an instrument run. Extraction buffer alone was analyzed as a processing blank sample. Metabolite extracts, the quality control sample, and the processing blank were evaporated to dryness using a speed-vacuum.
Dried extracts were reconstituted in 30 μL of acetonitrile/water (1:1, V/V), vortexed for 10 minutes, and incubated at −20° C. for 18 hours. Samples were then centrifuged at 4° C. for 2 minutes at 21,000×g and the supernatant was transferred to autosampler vials for analysis.
For LC chromatographic separation, 2 μL of reconstituted metabolite extracts, QC sample, and processing blank were run on a Millipore SeQuant ZIC-PHILIC (2.1×150 mm, 5 um particle size, Millipore Sigma #150460) column with a ZIC-PHILIC guard column (20×2.1 mm, Millipore Sigma #150437) attached to a Thermo Vanquish Flex UHPLC. The mobile phase comprised Buffer A [20 mM (NH4)2CO3, 0.1% NH4OH (v/v)] and Buffer B [acetonitrile]. The chromatographic gradient was run at a flow rate of 0.150 mL/min as follows: 0-20 min-linear gradient from 80 to 20% Buffer B; 20-20.5 min-linear gradient from 20 to 80% Buffer B; and 20.5-28 min-hold at 80% Buffer B. Data were acquired using a Thermo Q Exactive MS operated in full-scan, polarity-switching mode with a spray voltage set to 3.0 kV, the heated capillary held at 275° C., and the HESI probe held at 350° C. The sheath gas flow was set to 40 units, the auxiliary gas flow was set to 15 units, and the sweep gas flow was set to 1 unit. MS data acquisition was performed with polarity switching in a range of m/z 70-1,000, with the resolution set at 70,000, the AGC target at 10e6, and the maximum injection time at 200 ms. The QC sample was analyzed at the beginning and end of the LC-MS run and after every 10 samples.
Acquired LC-MS and GC-MS data were processed using the Thermo Scientific TraceFinder software. Targeted metabolites were identified by matching accurate mass and retention times to the University of Iowa Metabolomics Core Facility's in-house library of confirmed standards. After peak area integration by TraceFinder, NOREVA software was applied for signal drift correction on a metabolite-to-metabolite basis using the pooled QC sample that had been analyzed throughout the instrument run. Within individual samples, Post-NOREVA metabolite levels were divided by the total metabolite load (sum of all metabolite values) to equally weight individual metabolites for comparison across samples.

293T = assay: CellTiter-Glo Luminescent Cell Viability Assay; assay type: cell-based, human; conditions: 2 mM, 24 hours, DMEM
Method: (§1) HT29, 293T, U2OS, and 3T3-LI cells were plated on an opaque 96-well plate in 1:1 DMEM. […] At the appropriate time point, 100 μl of CellTiter-Glo reagent (Promega #G7570) was added to each well. The plate was gently mixed for 2 minutes to induce lysis, incubated at room-temperature for 10 minutes, and then luminescence was measured.
(§2) To test whether tryptophan inhibition of growth applied to other cell lines and persisted in conventional cell culture media, two human cancer cell lines (HT29, U2OS), a transformed human embryonic kidney cell line (293T), and a mouse, fibroblast-like cell line (3T3-L1) were grown in DMEM for 24 hours and then treated with 2 mM tryptophan or vehicle. After 24 hours, cells were assayed by CellTiter-Glo, which indicates cell viability by measuring ATP production.

HT29 = assay: CellTiter-Glo Luminescent Cell Viability Assay; assay type: cell-based, human; conditions: 2 mM, 24 hours, DMEM
Method: as §1, §2

Compound: N[C@@H](Cc1c[nH]c2ccccc12)C(=O)O [tryptophan, L-tryptophan]
- cytotoxicity at 2000 µM (HCT15 cells): ~50%
- xanthommatin level (HCT116 cells; IFN-γ (50 ng/μL) for 24 hours, then tryptophan 1 mM for 6 hours, QMAP): only tryptophan metabolite to significantly increase
- 3HK level (HCT116 cells; tryptophan supplementation): not detectable
- cell viability compared to vehicle (293T): significant decreases
- cell viability compared to vehicle (HT29): significant decreases
